Results on seven compounds are retold here after patent publication US5082848A, “Substituted 4-aminoquinoline derivatives as gastric acid secretion inhibitors” (Smith Kline & French Laboratories, Ltd., priority 1988, dated 1992).

Experiment [1] relates to pentagastrin stimulated gastric acid secretion. In words: Rat Lumen Perfused Stomach (pentagastrin stimulated gastric acid secretion). Particulars: i.v. administration, 10 μmole/kg. The experiment is classed as in vivo. The source says: B. Rat Lumen Perfused Stomach (pentagastrin stimulated gastric acid secretion).
Using a modification of the procedure described by Ghosh & Schild (Br. J. Pharmacology, 13, 54, 1958), the compounds of the following examples were found on i.v. administration at a concentration of 10 μmole/kg to cause an inhibition of pentagastrin stimulated gastric acid secretion as follows: […]

The target in a further experiment is T1, H^+ K^+ ATPase (Sus scrofa, UniProt P19156).
T1 construct: Lyophilised gastric vesicles were prepared from pig fundic mucosa; from tissue; host or cells: pig fundic (gastric) mucosa, lyophilised gastric vesicles
In words: K^+ -stimulated ATPase activity in lyophilised gastric vesicles. It counts as biochemical. Particulars: lyophilised gastric vesicles from pig fundic mucosa, 37° C., pH 7.0, 30 minutes. Here is the method:
The effects of a single high concentration (100 μM) of a compound of structure (I) on K^+ -stimulated ATPase activity in lyophilised gastric vesicles was determined. Preferred compounds of structure (I) were also tested over a range of concentrations to determine IC50 values.
Lyophilised gastric vesicles were prepared from pig fundic mucosa after the method of Keeling et. al. (Biochem. Pharmacol., 34, 2967, 1985).
K^+ -stimulated ATPase activity was determined at 37° C. in the presence of the following: 10 mM Pipes/Tris buffer pH 7.0, 2 mM MgSO4, 1 mM KCl, 2 mM Na2 ATP and 3-6 μg protein/ml lyophilised gastric vesicles. After incubation for 30 minutes, the inorganic phosphate hydrolysed from ATP was determined by the method of Yoda and Hokin (Biochem. Biophys. Res. Commun. 40, 880, 1970).
Compounds of structure (I) were dissolved in dimethylsulphoxide which up to the highest concentration
used had no effect on K^+ -stimulated ATPase activity.
The effect of the highest concentration of each compound of structure (I) on the recovery of a standard amount of inorganic phosphate was also determined.

pIC50: −log10 of the molar value.

By pIC50 is commonly meant −log10 of the IC50, conventionally taken in molar units. High values mean a small IC50, low ones a large IC50.

T1 sequence (P19156 2-1034 limits assumed): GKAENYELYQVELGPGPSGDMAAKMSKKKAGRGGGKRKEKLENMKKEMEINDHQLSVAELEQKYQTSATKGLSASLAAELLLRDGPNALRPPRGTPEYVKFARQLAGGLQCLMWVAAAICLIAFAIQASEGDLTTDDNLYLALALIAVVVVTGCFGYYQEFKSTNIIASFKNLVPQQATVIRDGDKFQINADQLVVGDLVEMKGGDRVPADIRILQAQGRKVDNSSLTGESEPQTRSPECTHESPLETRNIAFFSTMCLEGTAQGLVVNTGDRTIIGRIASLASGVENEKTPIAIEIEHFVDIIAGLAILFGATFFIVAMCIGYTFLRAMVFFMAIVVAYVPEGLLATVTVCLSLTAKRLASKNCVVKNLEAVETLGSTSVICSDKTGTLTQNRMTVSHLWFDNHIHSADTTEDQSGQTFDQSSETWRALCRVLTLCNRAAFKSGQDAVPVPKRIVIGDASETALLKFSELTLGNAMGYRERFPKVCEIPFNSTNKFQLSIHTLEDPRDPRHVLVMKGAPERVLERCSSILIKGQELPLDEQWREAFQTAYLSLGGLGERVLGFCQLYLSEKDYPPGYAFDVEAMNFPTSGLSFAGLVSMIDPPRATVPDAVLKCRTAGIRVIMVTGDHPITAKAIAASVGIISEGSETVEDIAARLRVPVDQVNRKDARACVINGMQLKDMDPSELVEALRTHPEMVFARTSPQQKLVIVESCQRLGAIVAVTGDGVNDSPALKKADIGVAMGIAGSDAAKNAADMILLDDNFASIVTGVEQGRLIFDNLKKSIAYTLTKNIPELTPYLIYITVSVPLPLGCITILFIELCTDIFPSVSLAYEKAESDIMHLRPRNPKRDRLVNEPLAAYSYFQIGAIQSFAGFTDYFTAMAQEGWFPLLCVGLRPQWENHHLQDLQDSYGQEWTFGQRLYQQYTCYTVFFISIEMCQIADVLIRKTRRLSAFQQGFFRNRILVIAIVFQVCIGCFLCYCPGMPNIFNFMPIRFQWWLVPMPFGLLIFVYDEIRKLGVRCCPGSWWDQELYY
T1 sequence (P18434 whole entry partner): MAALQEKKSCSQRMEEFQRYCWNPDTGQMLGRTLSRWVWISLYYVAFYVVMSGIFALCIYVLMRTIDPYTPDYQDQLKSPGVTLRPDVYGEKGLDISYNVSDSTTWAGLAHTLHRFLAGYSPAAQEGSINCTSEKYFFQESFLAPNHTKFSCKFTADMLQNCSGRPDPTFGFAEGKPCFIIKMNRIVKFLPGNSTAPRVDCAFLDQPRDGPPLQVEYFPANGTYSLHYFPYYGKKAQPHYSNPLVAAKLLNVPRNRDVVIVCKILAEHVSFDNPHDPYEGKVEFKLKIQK

As for `CCCC(=O)c1cnc2c(OC)cccc2c1Nc1ccccc1CO` [Example 1, 3-butyryl-4-(2-(hydroxymethyl)phenylamino)-8-methoxyquinoline], the “% inhibition of pentagastrin stimulated gastric acid secretion” value (from here on “% inhibition”) in experiment [1] is listed as 33%. This compound also had a pIC50 against H^+ K^+ ATPase of 4.92. For the compound `CCCC(=O)c1cnc2c(OC)cccc2c1Nc1ccccc1COC` [Example 2, 3-butyryl-4-(2-methoxymethylphenylamino)-8-methoxyquinoline], the “% inhibition” value in experiment [1] amounted to 43%. Moreover, the pIC50 on H^+ K^+ ATPase was 5.26. Turning to `CCCC(=O)c1cnc2c(OC)cccc2c1Nc1ccc2c(c1)OCO2` [Example 3, 3-butyryl-4-(3,4-(methylenedioxy)phenylamino)-8-methoxyquinoline], in experiment [1], the “% inhibition” value was 20%. At H^+ K^+ ATPase, this compound had a pIC50 of 5.44. For `CCCC(=O)c1cnc2c(OC)cccc2c1Nc1ccc(CO)cc1` [Example 4, 3-butyryl-4-(4-hydroxymethylphenylamino)-8-methoxyquinoline], the “% inhibition” value in experiment [1] worked out at 51%.

On to `CCCC(=O)c1cnc2c(OC)cccc2c1Nc1c(C)cc2c(c1C)OCO2` [Example 5, 3-butyryl-4-(3,4-methylenedioxy-2,6-dimethylphenylamino)-8-methoxyquinoline], for which, in experiment [1], the “% inhibition” value is reported as 44%. Besides, on H^+ K^+ ATPase, the negative-log IC50 (pIC50) is 5.57. In the case of `CCCC(=O)c1cnc2c(OC)cccc2c1Nc1cccc(CO)c1C` [Example 6, 3-butyryl-4-(3-hydroxymethyl-2-methylphenylamino)-8-methoxyquinoline], the pIC50 against H^+ K^+ ATPase is 5.22.

`CCCC(=O)c1cnc2c(OC)cccc2c1Nc1cc(CO)ccc1C` [Example 7, 3-butyryl-4-(5-hydroxymethyl-2-methylphenylamino)-8-methoxyquinoline]: the “% inhibition” value in experiment [1] is 25%. The compound further showed a negative logarithm of the IC50 (pIC50) against H^+ K^+ ATPase of 4.99.
